Experimental data published in article PMC9138545, “Incorporation of Oxidized Phenylalanine Derivatives into Insulin Signaling Relevant Proteins May Link Oxidative Stress to Signaling Conditions Underlying Chronic Insulin Resistance” (Biomedicines, 2022).
Each block holds one molecule with its values, some of them ahead of it.

How the values were obtained:
[1] = test system: acute insulin resistance; conditions: ref [6]; cited from earlier work
Text: Acute insulin resistance induced by tumor necrosis factor alpha (TNFα) or dexamethasone could be ameliorated by the antioxidants N-acetylcysteine, manganese (III) tetrakis (4-benzoicacid) porphyrin (MnTBAP), or by induction of antioxidant enzymes such as superoxide dismutase or catalase.

[2] = target: T1, C-terminal SH2 domain of PI3K regulatory subunit 1 (Homo sapiens, UniProt P27986); test: Fluorescence polarization binding, PI3K-SH2(C); conditions: competitive FP; statement for the SH2 domains
T1 construct: The N- and C-terminal SH2 domains (regions 321–433 and 614–724, respectively) of the PI3K regulatory subunit; hexa-histidine (inferred: expressed and purified like His-tagged PTP1B); made in house; host or cells: Escherichia coli (bacterial expression vector; strain BL21 (DE3) is stated only for PTP1B)
T1 sequence (P27986 614-724): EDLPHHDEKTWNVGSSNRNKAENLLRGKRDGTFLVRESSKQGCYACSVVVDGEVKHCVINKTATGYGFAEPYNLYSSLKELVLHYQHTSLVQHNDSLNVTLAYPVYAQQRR
Text: The N- and C-terminal SH2 domains (regions 321–433 and 614–724, respectively) of the PI3K regulatory subunit were subcloned into a bacterial expression vector by PCR and then similarly expressed and purified as described above.
For in vitro fluorescence polarization (FP)-based affinity measurements, a peptide containing the phosphorylated tyrosine residue 632 of human IRS1 was labelled by lys-carboxyfluorescenine at its C-terminal end (GRKGSGD(pY)MPMSPKS(K-FITC). Synthesis of the labelled peptide was done by GenScript Inc. For competitive FP measurements, unlabeled peptides with either natural (para-phospho-Tyr) or unnatural (ortho-phospho-Tyr and meta-phospho-Tyr) phosphorylated amino acids (core sequence GRKGSGD(pY)MPMSPKV in all three cases) were used. Direct titration with the labelled peptide was done by generating a dilution series of the protein (N-terminal and C-terminal SH2 domains of PI3K regulatory subunit 1), with a constant (100 nM) peptide concentration in a standard buffer (100 mM NaCl, 20 mM TRIS pH = 8.0, 0.05% Brij-35 detergent). Competitive titrations were done by keeping the concentration of the protein-labelled peptide mixture constant (150 nM and 1500 nM C-terminal and N-terminal domain, respectively, with 100 nM labelled peptide) and varying the concentration of the unlabeled competitor peptide instead. […]

[3] = test system: human PTP1B catalytic domain (1–299 aa); test: PTP1B dephosphorylation assay, capillary electrophoresis; assay type: biochemical; conditions: 80 μM phosphopeptide, 25 nM PTP1B, 50 mM TRIS, 150 mM NaCl, 1 mM EDTA, 2 mM DTT, pH 7.4
Experimental: The cDNA segment encoding the human PTP1B catalytic domain (1–299 aa) was PCR amplified from a HEK293T cDNA pool and inserted into the pBH4 vector with BamHI and NotI restriction sites. This construct is only missing the C-terminal flexible region and the membrane binding segment of PTP1B. The protein was expressed with an N-terminal hexa-histidine tag. Recombinant active PTP1B was expressed in the Escherichia coli BL21 (DE3) bacterial strain. Briefly, cells were grown in an ampicillin-containing LB medium at 37 °C to OD = 0.6 and then cooled down to 18 °C and induced by the addition of 0.05 mM isopropyl-beta-D-thiogalactoside (IPTG). After an overnight expression at 18 °C, the pellet was harvested and washed with phosphate buffered saline (PBS). Following freezing at −80 °C, cells were lysed in an appropriate buffer (300 mM NaCl, 50 mM phosphate, 10 mM imidazole, 2 mM beta-mercapto-ethanol, 0.1% IGEPAL with pH = 8.0, and 0.5 mM benzamidine with 0.5 mM PMSF protease inhibitors added) with the help of sonification. The lysate was centrifuged at 20,000 rpm for 30 min and the supernatant (~30 mL) was mixed with 1 mL Ni-NTA resin slurry (50%). After 45 min incubation at 4 °C, the mixture was transferred to gravity columns and washed with 10-10 mL of imidazole (40 mM imidazole, 300 mM NaCl, 50 mM phosphate, pH = 8.0 with 2 mM beta-mercapto-ethanol) and high salt (1000 mM NaCl, 20 mM imidazole, 20 mM TRIS, pH = 8.0 with 2 mM beta-mercapto-ethanol) containing wash buffers, each. PTP1B was eluted by applying 5 mL elution buffer (400 mM imidazole, 200 mM NaCl, 10% glycerol, 20 mM TRIS, pH = 8.0, with 0.1% IGEPAL). The eluted protein was supplemented with tricarboxy-ethyl-phosphine (TCEP) reducing agent at 2 mM concentration.
The Ni-NTA purified PTP1B protein was further purified by anion exchange chromatography. […]
Background electrolyte (BGE) components phosphoric acid and triethylamine were purchased from Sigma (St. Louis, MO, USA) and from Merck GmbH (Darmstadt, Germany), respectively. […] On-line absorption at 200 nm was monitored by DAD UV-Vis detector. […]

[4] = test system: type 2 diabetic patients; conditions: ref [40]; cited from earlier work
Text: Elevated levels of m- and/or o-Tyr have been described in the vascular wall of cynomolgus monkeys as well as in cataract lenses.

[5] = test system: patients (chronic insulin resistance); conditions: chronic antioxidant therapy, e.g., in diabetic neuropathy; ref [7]; cited from earlier work
Text: Moreover, using the so-called “breakthrough” therapy, a 2–4 week decrease in glucotoxicity is able to normalize glycemia by decreasing insulin resistance for months or years. Because clinical insulin resistance can be reverted, it is not an alteration of the DNA, but rather some type of protein abnormality; this can be hypothesized given the background of this oxidative stress-induced clinical condition.

Molecule: O=C(O)c1ccc(-c2c3nc(c(-c4ccc(C(=O)O)cc4)c4ccc([n-]4)c(-c4ccc(C(=O)O)cc4)c4nc(c(-c5ccc(C(=O)O)cc5)c5ccc2[n-]5)C=C4)C=C3)cc1.[Mn+3] [MnTBAP, manganese (III) tetrakis (4-benzoicacid) porphyrin]
acute insulin resistance induced by TNFα or dexamethasone [1]: ameliorated

binding affinity compared to phospho-para-Tyr peptide (GRKV2), PI3K-SH2(C) [2]: greatly reduced binding affinity
Molecule: GRKGSGDF(2-PO4H2)MPMSPKV [GRKV6, phospho-ortho-Tyr containing IRS-1 YXXM motif peptide]
dephosphorylation by PTP1B [3]: incapable of dephosphorylating

Molecule: GRKGSGDF(4-PO4H2)MPMSPKV [GRKV2, phospho-para-Tyr containing IRS-1 YXXM motif peptide]
dephosphorylation by PTP1B [3]: apart from the p-Tyr peptide, none of the modified Tyr containing peptides could be dephosphorylated by PTP1B

binding affinity compared to phospho-para-Tyr peptide (GRKV2), PI3K-SH2(C) [2]: greatly reduced binding affinity
Molecule: GRKGSGDF(3-PO4H2)MPMSPKV [GRKV4, phospho-meta-Tyr containing IRS-1 YXXM motif peptide]
dephosphorylation by PTP1B [3]: incapable of dephosphorylating

Molecule: Oc1ccc(/C=C/c2cc(O)cc(O)c2)cc1 [resveratrol]
insulin resistance [4]: improvement in insulin resistance
urinary excretion of o-Tyr [4]: decrease in urinary excretion of o-Tyr

Molecule: CC(=O)N[C@@H](CS)C(=O)O [N-acetylcysteine]
acute insulin resistance induced by TNFα or dexamethasone [1]: ameliorated

Molecule: O=C(O)CCCCC1CCSS1 (stereo not drawn) [alpha-lipoic acid]
chronic insulin resistance [5]: able to improve chronic insulin resistance
